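Five concentrations, 48 hours, 96-well plates. TGI: total growth inhibition.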
What was measured:
Assay in all cases: NCI tumour cell line growth inhibition, 48 h
DLD-1 colon = tested on: DLD-1 colon
RXF-631 renal = tested on: RXF-631 renal
XF 498 CNS = tested on: XF 498 CNS
P388 leukemia = tested on: P388 leukemia
SN12K1 renal = tested on: SN12K1 renal
P388/ADR leukemia = tested on: P388/ADR leukemia
HOP-18 NSCLC = tested on: HOP-18 NSCLC
LXFL 529 NSCLC = tested on: LXFL 529 NSCLC

Compound | TGI (DLD-1 colon) [µM] | TGI (RXF-631 renal) [µM] | TGI (XF 498 CNS) [µM] | TGI (P388 leukemia) [µM] | TGI (SN12K1 renal) [µM] | TGI (P388/ADR leukemia) [µM] | TGI (HOP-18 NSCLC) [µM] | TGI (LXFL 529 NSCLC) [µM]
C[n+]1c2ccccc2c(/C=N\NS(=O)(=O)c2ccc(O)c(C(=O)O)c2)c2ccccc21 | > 100 | > 100 | 83.8 |  |  |  |  | 
CNC(=O)C(C)C1CCC2(C)C=CC(=O)C(C)=C2C1O (stereo not drawn) | > 100 |  | > 100 | > 100 | > 100 | > 100 |  | 
O=C1c2ccccc2C2C1N2C(=O)C(F)(F)F (stereo not drawn) | > 100 | > 100 | > 100 |  |  |  | > 100 | > 100
CCN(CC)CCC(=O)Nc1ccc2c(c1)C(=O)c1ccc(NC(=O)CCN(CC)CC)cc1C2=O | 10.2 |  |  |  |  |  | 18.4 | 12
CC(N)Cc1ccc(C(=O)Cl)cc1 (stereo not drawn) | > 100 | > 100 | > 100 |  |  |  |  | > 100
O=C1CCC23CC(C=CC=C12)n1c(=O)n(-c2ccccc2)c(=O)n13 (stereo not drawn) | > 100 |  | > 100 | > 100 | > 100 | > 100 | > 100 | 
O=C(Nc1ccc(C2=NCCN2)cc1)c1cncc(C(=O)Nc2ccc(C3=NCCN3)cc2)c1 | > 100 |  | > 100 | 82.5 | > 100 | > 100 | > 100 | 
[N-]=[N+]=Nc1cc(=O)oc2ccccc12 | > 100 |  |  |  |  |  | > 100 | > 100
CCC12C=CCN3CCC4(C(=C(C(=O)OC)[C@@H]1O)Nc1ccccc14)C32 (stereo partly drawn) | 3.36 |  | 3.05 |  |  |  | 4.87 | 3.13
Cc1cccc2c(=O)cc(-c3ccccc3)[nH]c12 | > 100 |  | > 100 |  |  |  |  | > 100
CC(=O)Nc1ccc(-c2nnc(SCC(=O)Nc3ccc([N+](=O)[O-])cc3)o2)cc1 | 26.4 |  |  |  |  |  | 29.9 | 20.4
CCCCCCCCCCCOc1ccc(C(=O)C(=O)c2ccc(OCCCCCCCCCCC)c(OCCCCCCCCCCC)c2)cc1OCCCCCCCCCCC | > 100 |  | > 100 |  |  |  |  | > 100
Cc1c2cnccc2c(C)c2c1c1ccccc1n2CCCN | 0.847 |  | 1.4 | 0.212 | 0.831 | 0.707 | 2.65 | 
COc1cc([C@@H]2OCC3C(c4ccc5c(c4)OCO5)OCC32)cc(OC)c1OC (stereo partly drawn) | > 100 |  | > 100 |  |  |  |  | > 100
CNS(=O)(=O)NNS(=O)(=O)c1ccc2ccccc2c1 | > 100 |  |  |  |  |  | > 100 | > 100
CC1C=C(CCCCCCCCCCCC[C@@H](O)[C@@H]2CC[C@@H]([C@@H]3CC[C@@H](C(O)CCCCCCCCCCCCC4=C[C@H](C)OC4=O)O3)O2)C(=O)O1 (stereo partly drawn) | > 100 |  | > 100 |  |  |  | > 100 | > 100
N#CN=C(N(Cc1ccccc1)Cc1ccccc1)N(Cc1ccccc1)Cc1ccccc1 | > 100 |  | 89.8 |  |  |  | > 100 | > 100
